Experiments:
FGF21 = FGF21 mRNA expression in 266-6 murine acinar cells (RT-qPCR); format: cell-based; conditions: 266-6 cells
Description: Using one of these models, RT-qPCR analysis of FFG21 mRNA expression was performed in 266-6 murine acinar cells after 6 hours treatment of DMSO/different doses of SR1078 (commercial ROR-α agonist). The statistical significance was calculated relative to DMSO and was determined by Student's t test (two-tailed). Values in graphs are mean±SD. *p<0.05, **p<0.01, ***p<0.001, ****p<0.0001.

RORα = biological target: T1, RORα (Homo sapiens, UniProt P35398); assay: RORα activity by luciferase reporter (miR-122 promoter) in Huh-7 cells; format: cell-based; parameters: MIR122 promoter activity compared with SR1078: dose or concentration left out as unconfirmed; conditions: wild type and mutant RORA
T1 construct: endogenous in cells; host or cells: Huh-7 (Huh7) human hepatocellular carcinoma cells
T1 sequence (P35398 1-523): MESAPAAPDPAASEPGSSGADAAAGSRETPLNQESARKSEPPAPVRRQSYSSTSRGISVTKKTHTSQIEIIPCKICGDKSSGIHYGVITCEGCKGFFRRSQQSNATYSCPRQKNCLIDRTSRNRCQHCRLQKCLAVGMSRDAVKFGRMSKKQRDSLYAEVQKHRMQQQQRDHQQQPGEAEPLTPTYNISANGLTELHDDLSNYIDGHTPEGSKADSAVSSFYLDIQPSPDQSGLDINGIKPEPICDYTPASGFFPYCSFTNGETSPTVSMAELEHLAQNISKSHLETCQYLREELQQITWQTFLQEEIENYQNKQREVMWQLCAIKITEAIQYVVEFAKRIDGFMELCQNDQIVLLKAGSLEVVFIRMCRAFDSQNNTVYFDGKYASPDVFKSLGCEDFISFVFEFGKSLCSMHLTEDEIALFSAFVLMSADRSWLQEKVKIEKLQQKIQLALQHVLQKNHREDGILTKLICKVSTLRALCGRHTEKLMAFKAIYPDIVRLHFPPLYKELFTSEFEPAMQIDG
Description: Huh-7 cells were transfected with a luciferase reporter plasmid containing the miR-122 promoter (extends to −900 from the transcription start site) with intact wild-type (WT) RORα response element (RORE) or mutated RORE (mut). The cells were treated with Compound 1 one day (24 hours) post-transfection at the indicated concentrations. Luciferase expression was measured after 24 hours of treatment and normalized to Renilla Luciferase activity expressed from a co-transfected pRL plasmid. The pRL Vector, which provides constitutive expression of Renilla luciferase, was used in combination with a firefly luciferase vector to co-transfect cells. Expression of Renilla luciferase provides an internal control value to which expression of the experimental firefly luciferase reporter gene may be normalized.
Luciferase assay. For Luciferase assays, cells grown in 24 well plates were co-transfected with a luciferase reporter plasmid (50 ng) and 1 ng of Renilla Luciferase vector (PRL, Promega) using the TransIT-LT 1 (Mirus) transfection reagent (MIR 2300, Madison, WI). Firefly and Renilla luciferase activity was assessed using the Dual Luciferase Reporter Assay system (Promega). Readings were taken in triplicates on a Mithras LB 940 Luminometer (Berthold Technologies). […]
(§1) Following transfections, the cells were lysed with passive lysis buffer (Cat #E1941; Promega), shaking for 20 min at RT and transferred into appropriate 96-well plate. Firefly and Renilla luciferase activity was assessed using the Dual Luciferase Reporter Assay system (Cat #E1910; Promega) on a luminometer Mithras 2000 (Centro XZ, LB960, Berthold Technologies, Bad Wildbad, Germany). […] Readings were taken in triplicate.
as §1, with “room temperature (RT)” for “RT”, “into the” for “into”, “triplicates. […]” for “triplicate.”
After transfections, the cells were lysed with passive lysis buffer (catalog no. E1941, Promega), shaken for 20 minutes at room temperature, and transferred into the appropriate 96-well plate. Firefly and Renilla luciferase activity was assessed using the Dual Luciferase Reporter Assay system (catalog no. E1910, Promega) on a luminometer Mithras 2000 (Centro XZ, LB960; Berthold Technologies, Bad Wildbad, Germany). […] Readings were taken in triplicate.

[1] = tested on: peripheral and the central benzodiazepine receptors; conditions: prediction later experimentally proven; cited from earlier work
[2] = tested on: high-fat-fed C57BL/6 mice; assay: High-fat-diet-fed C57BL/6 mice treated with Compound 1 and/or antagomiR-122; format: in vivo; conditions: 50% HFD; Compound 1 7.5 mg/kg i.p. twice a week, antagomiR once a week, 3 weeks
Description: C57BL/6 mice were fed a 50% high fat diet (HFD) for four weeks. The control cohort received three hydrodynamic tail vein injections of a 5 μg antagomiR-control and six i.p injections of saline over three weeks. A second cohort was hydrodynamic tail vein injected with 5 μg antagomiR-122 (the reverse complement that inhibits activity of miR-122) three times and i.p injections of saline six times over three weeks. A third cohort was injected i.p. with Compound 1 (7.5 mg/kg) twice a week plus antagomiR-control once a week over the course of 3 weeks. The final cohort was injected i.p. with Compound 1 (7.5 mg/kg) twice a week plus antagomiR-122 injections once a week over the course of 3 weeks.
Male C57BL/6J mice, 7 to 8 weeks old, were housed randomly in standard cages and were fed a HFD, or atherogenic diet (consisting 1% Chol and 0.5% cholic acid, see also Table 6). All mice had free access to water during the experimental period. During the feeding period body weight was monitored every 3 days. In the HFD experiment, after 4 or 6 weeks, the resultant obese mice were treated with antagomiR-122 (5 μg/mouse once a week for 3 weeks), or i.p. injected with Compound 1 (RORα agonist, 7.5 mg/kg twice a week for 3 weeks; or 15 mg/kg 3 times a week for 3 weeks). The obese control (HFD) group was administered only saline with DMSO and antagomiR-control. After 3 weeks of treatment mice were sacrificed and livers were taken for RNA-seq analysis. Livers, white adipose, and skeletal muscle tissues were frozen in liquid nitrogen or in optimum cutting temperature embedded frozen blocks, for further RNA and histologic analysis. In the atherogenic diet experiment mice were treated with 15 mg/kg Compound 1 after 3 weeks with the diet. After 3.5 weeks of treatment, mice were sacrificed, and the livers were frozen in liquid nitrogen or in optimum cutting temperature embedded frozen blocks. Plasma was collected from atherogenic diet-fed mice and saved in −20° C. for ALT and AST analysis using the Reflotron® Analyzer and test-strips (Roche).
In the HFD experiment, after 4 or 6 weeks, the resultant obese mice were treated with antagoMIR122 (5 μg/mouse once a week for 3 weeks), or i.p. injected with Compound 1 (RORα agonist, 7.5 mg/kg twice a week for 3 weeks; or 15 mg/kg 3 times a week for 3 weeks). The obese control (HFD) group was administered only saline with DMSO and antagomiR-control.
Mice were fed with a 50% HFD and after 4 weeks, when fatty liver was already established, they were treated with Compound 1, antagoMIR122 or both compounds together for an additional 3 weeks. […] The weighing of mice began at week 3, one week before treatments were initiated. […] The liver weight of the mice was in accordance with their body weight.

MIR122 = assay: AntagoMIR122 treatment of chow or HFD fed mice; format: in vivo, C57BL/6 mice; conditions: for MIR122 levels in plasma, liver and white adipose tissue: hydrodynamic tail vein injection, 5 μg/mouse once a week
Description: C57BL/6 mice, 7 to 8 weeks old, were fed chow or 50% HFD, consisting of 50% Fat, 20% Sucrose, 10% Fructose, 1.25% Chol) (Envigo, TD.150235) for 4 weeks. In experiments of miR-122 repression by antagomiR, mice were hydrodynamic tail vain injected with antagomiR-122 or antagomiR-control (5 μg/mouse in 1.5 mL saline) once a week for 4 weeks and were still fed HFD or chow diet. After 4 weeks of injections mice were sacrificed and the livers, white adipose, and skeletal muscle tissues were frozen in liquid nitrogen or in optimum cutting temperature embedded frozen blocks, for further RNA and histologic analysis. AntagomiRs were obtained from Sigma-Aldrich (St Louis, MO); see Table 5.
C57BL/6 mice, 7 to 8 weeks old, were fed chow or 50% HFD, consisting of 50% Fat, 20% Sucrose, 10% Fructose, 1.25% Cholesterol) (Envigo, TD.150235) for 4 weeks. In experiments of MIR122 repression by antagomiR, mice were hydrodynamic tail vain injected with antagoMIR122 or antagomiR-control (5 μg/mouse in 1.5 mL saline) once a week for 3 weeks and were still fed HFD or chow diet. After 3 weeks of injections mice were sacrificed and the livers, gonadal white adipose, and skeletal muscle tissues were frozen in liquid nitrogen or in optimum cutting temperature embedded frozen blocks, for further RNA and histologic analysis. AntagomiRs were obtained from Sigma-Aldrich (St Louis, MO).

In the case of `O=C(Nc1ccc(C(O)(C(F)(F)F)C(F)(F)F)cc1)c1ccc(C(F)(F)F)cc1` [SR1078], the “Fgf21 expression in acinar cells” value (FGF21; 6 hours treatment) is reported as “increases Fgf21 expression” and the “Concentration of optimal effect on Fgf21 expression” value (FGF21; 6 hours, effect decreasing at 20 and 40 μM) is reported as 10 micromolar (μM).
With `O=C1Nc2cc(C(=O)N3CCC(Cc4ccccc4)CC3)ccc2Nc2ccccc21` [Compound 68] the “MIR122 promoter activity compared with SR1078” value (RORα) was “more potent than the commercial synthetic RORA agonist SR1078”.
In the case of `CC(C)=CCC/C(C)=C/CC/C(C)=C/CN1C(=O)c2cccc(O)c2Nc2c(O)cc(O)cc21` [Diazepinomicin], the “Predicted CNS activity (Gourdeau et al. 2008)” value [1] is listed as “predicted to be CNS inactive”.
In the case of “antagomiR-122: MIR122 antagonist; 2′-O Me-modified, phosphorothioate, cholesterol-linked reverse complement that inhibits activity of miR-122 (antisense ACAAACACCAUUGUCACACUCCA; all 2'-O-methyl, backbone not given here; phosphorothioate linkages and cholesterol conjugate, further chemistry not fully specified)”, the Body weight [2] is reported as “highest increase in weight”, the Mice weight (MIR122; HFD mice) is reported as “increased significantly” and the “Liver fat droplets, total TG liver content and muscle TG levels” value (MIR122; HFD-fed mice) is reported as “increase”. The “MIR122 levels in plasma, liver and white adipose tissue” value (MIR122) was “significantly reduced” and the “MIR122 levels in plasma, liver and white adipose tissue” value (MIR122; listed as antagoMIR122) was “reduced significantly”.

— patent US20250339445A1, “Modulators of Orphan Nuclear Receptors for Treating Pancreatitis, Glioblastoma, Sarcopenia and Stroke” (Emory University, priority 2020, published 2025)
